Source: patent US20240116877A1, “KIT KINASE INHIBITORS AND METHODS OF USE THEREOF” (Deciphera Pharmaceuticals, LLC, priority 2021, published 2024)
Read-outs that look alike come from different tables or passages of the source.

Legend:
Ba/F3 KIT mutant cells = assay: Ba/F3 mutant KIT Cell Proliferation Assays (resazurin); format: cell-based; details: Mus musculus, BaF3
In short: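 IC50 values come from resazurin fluorescence (ex 540, em 600) after 5 h dye exposure, added as a 440 μM solution. Cells were IL-3-independent Ba/F3 expressing mutant KIT from a lentiviral vector, puromycin-selected.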

GIST 430 cells = assay: GIST 430 Cell Proliferation Assay (resazurin); format: cell-based; details: Homo sapiens; GIST430 cell proliferation
In short: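 Five thousand cells per well were exposed to serially diluted compound in complete growth medium for 115 h at 37 degrees Celsius, 5% CO2. Resazurin was then added for a further 5 h, fluorescence read at 540 nm excitation/600 nm emission, and IC50 values calculated.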

c-KIT kinase (uKIT) = c-KIT kinase (uKIT) (Homo sapiens (Human), UniProt P10721); assay: Biochemical Assay for uKIT (coupled pyruvate kinase/lactate dehydrogenase assay); details: Inhibition of biochemical activity of uKIT kinase; 1 mM ATP
In short: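 Continuous coupled PK/LDH assay following NADH oxidation at 340 nm for 6 h at 30° C, with 16 nM or 4.36 nM KIT (two constructs), 0.7 mg/mL PE4Y, 1 mM ATP, pH 7.5. Rates from the 2-3 h window converted to percent inhibition versus controls; IC50 fitted.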

[1] = Ba/F3 KIT AYdup-V654A mutant cell proliferation, read-out: AYdup-V654A IC50
[2] = Ba/F3 KIT exon11del-V654A mutant cell proliferation, read-out: exon11del-V654A IC50
[3] = Ba/F3 KIT exon11del-Y823D mutant cell proliferation, read-out: exon11del-Y823D IC50

c-KIT kinase (uKIT), sequence (P10721 other isoform, or with tags, fused parts or gaps): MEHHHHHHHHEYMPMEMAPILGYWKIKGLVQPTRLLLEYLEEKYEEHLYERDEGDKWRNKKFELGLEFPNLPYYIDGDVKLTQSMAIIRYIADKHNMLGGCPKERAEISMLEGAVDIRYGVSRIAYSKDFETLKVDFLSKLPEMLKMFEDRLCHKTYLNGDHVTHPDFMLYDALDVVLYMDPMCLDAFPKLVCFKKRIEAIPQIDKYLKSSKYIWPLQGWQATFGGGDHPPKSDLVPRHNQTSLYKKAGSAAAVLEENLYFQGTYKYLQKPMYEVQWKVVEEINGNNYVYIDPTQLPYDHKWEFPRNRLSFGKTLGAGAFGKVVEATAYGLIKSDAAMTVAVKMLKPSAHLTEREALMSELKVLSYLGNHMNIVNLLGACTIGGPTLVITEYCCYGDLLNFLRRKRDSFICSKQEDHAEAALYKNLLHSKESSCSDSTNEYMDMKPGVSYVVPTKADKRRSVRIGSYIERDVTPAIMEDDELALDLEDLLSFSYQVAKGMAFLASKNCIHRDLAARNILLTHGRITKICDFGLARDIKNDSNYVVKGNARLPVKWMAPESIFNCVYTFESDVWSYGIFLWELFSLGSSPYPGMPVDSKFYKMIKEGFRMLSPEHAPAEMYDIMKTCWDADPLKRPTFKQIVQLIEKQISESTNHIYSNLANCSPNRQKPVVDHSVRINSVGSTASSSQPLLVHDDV

| SMILES | IC50 (Ba/F3 KIT mutant cells; [1]) | IC50 (Ba/F3 KIT mutant cells; [2]) | IC50 (Ba/F3 KIT mutant cells; [3]) | IC50 (GIST 430 cells) | IC50 (c-KIT kinase (uKIT)) | IC50 (Ba/F3 KIT mutant cells; Ba/F3 KIT AYdup mutant cell proliferation, read-out: AYdup IC50) | IC50 (Ba/F3 KIT mutant cells; Ba/F3 KIT AYdup-D816G mutant cell proliferation, read-out: AYdup-D816G IC50) |
| --- | --- | --- | --- | --- | --- | --- | --- |
| CC(C)(F)CCNC(=O)Nc1ccc(Nc2ncnc3cc(OC4CCC4)cc(F)c23)cc1 [Example 174] | 10 to 100 nM | 10 to 100 nM | 10 to 100 nM | 100 to 1000 nM | ≤ 10 nM | – | – |
| CC(C)(F)CCNC(=O)Nc1ccc(Nc2ncnc3cc(OC4COC4)cc(F)c23)cc1 [Example 175] | 10 to 100 nM | 10 to 100 nM | 10 to 100 nM | 10 to 100 nM | ≤ 10 nM | – | – |
| COCCOc1cc(OC)c2c(Nc3ccc(NC(=O)CC(=O)NC4CCCC4)cc3)ncnc2c1 [Example 176] | 10 to 100 nM | 100 to 1000 nM | 10 to 100 nM | 10 to 100 nM | 10 to 100 nM | 10 to 100 nM | 10 to 100 nM |
| COCCOc1cc(OC)c2c(Nc3ccc(NC(=O)CC(=O)NC(C)(C)C)cc3)ncnc2c1 [Example 177] | 10 to 100 nM | 100 to 1000 nM | 100 to 1000 nM | 10 to 100 nM | 10 to 100 nM | – | – |
| COCCOc1cc(F)c2c(Nc3ccc(NC(=O)CC(=O)N4C[C@@H](C)O[C@@H](C)C4)cc3)ncnc2c1 [Example 179] | 100 to 1000 nM | 100 to 1000 nM | 100 to 1000 nM | 100 to 1000 nM | 100 to 1000 nM | – | – |
| COCCOc1cc(OC)c2c(Nc3ccc(NC(=O)NCCC(C)(C)F)cc3)ncnc2c1 [Example 181] | 10 to 100 nM | 10 to 100 nM | ≤ 10 nM | 10 to 100 nM | ≤ 10 nM | – | – |
| COCCOc1cc(OC)c2c(Nc3ccc(NC(=O)NCCC(C)(C)C#N)cc3)ncnc2c1 [Example 182] | 10 to 100 nM | 10 to 100 nM | 10 to 100 nM | 10 to 100 nM | 10 to 100 nM | – | – |
| COCCOc1cc(OC)c2c(Nc3ccc(NC(=O)CC(=O)NC4CCC4)cc3)ncnc2c1 [Example 183] | ≤ 10 nM | 10 to 100 nM | 10 to 100 nM | 10 to 100 nM | 10 to 100 nM | – | – |
| CCN(CC)C(=O)CC(=O)Nc1ccc(Nc2ncnc3cc(OCCOC)cc(F)c23)cc1 [Example 184] | ≤ 10 nM | 100 to 1000 nM | 100 to 1000 nM | 10 to 100 nM | 10 to 100 nM | – | – |
| COCCOc1cc(F)c2c(Nc3ccc(NC(=O)CC(=O)N4CCOCC4)cc3)ncnc2c1 [Example 185] | > 1000 nM | > 1000 nM | > 1000 nM | 100 to 1000 nM | 100 to 1000 nM | – | – |
| COCCOc1cc(F)c2c(Nc3ccc(NC(=O)CC(=O)N4CCCC4)cc3)ncnc2c1 [Example 186] | > 1000 nM | > 1000 nM | > 1000 nM | > 1000 nM | 100 to 1000 nM | – | – |
| COCCOc1cc(F)c2c(Nc3ccc(NC(=O)CC(=O)N4CCCCC4)cc3)ncnc2c1 [Example 187] | 100 to 1000 nM | > 1000 nM | > 1000 nM | 100 to 1000 nM | 100 to 1000 nM | – | – |
| COCCOc1cc(F)c2c(Nc3ccc(NC(=O)CC(=O)N4C5CCC4CC5)cc3)ncnc2c1 [Example 188] | 100 to 1000 nM | 100 to 1000 nM | 100 to 1000 nM | 100 to 1000 nM | 10 to 100 nM | – | – |
| COCCOc1cc(F)c2c(Nc3ccc(NC(=O)CC(=O)N4CCCC4C(C)(C)C)cc3)ncnc2c1 (centres unmarked) [Example 189] | 100 to 1000 nM | 100 to 1000 nM | 100 to 1000 nM | 100 to 1000 nM | 10 to 100 nM | – | – |
| COCCCc1ccc2c(Nc3ccc(NC(=O)NCCC(C)(C)F)cc3)cnnc2c1 [Example 190, 1-(3-fluoro-3-methylbutyl)-3-(4-((7-(3-methoxypropyl)cinnolin-4-yl)amino)phenyl)urea] | 10 to 100 nM | 10 to 100 nM | 10 to 100 nM | 10 to 100 nM | 10 to 100 nM | – | – |
| COCCOc1cc(F)c2c(Nc3ccc(NC(=O)CC(=O)N4CC[C@H](C)C4)cc3)ncnc2c1 [Example 191] | 100 to 1000 nM | 100 to 1000 nM | 100 to 1000 nM | 100 to 1000 nM | 10 to 100 nM | – | – |
| COCCOc1cc(OC)c2c(Nc3ccc(NC(=O)CC(=O)N(C)C(C)(C)C)cc3)ncnc2c1 [Example 192] | 10 to 100 nM | 100 to 1000 nM | 10 to 100 nM | 10 to 100 nM | 10 to 100 nM | – | – |
| CC(C)(F)CCNC(=O)Nc1ccc(Nc2ncnc3cc(OCCCN4CCOCC4)cc(F)c23)cc1 [Example 195] | 10 to 100 nM | 10 to 100 nM | 10 to 100 nM | ≤ 10 nM | ≤ 10 nM | – | – |
| COCCOc1cc(F)c2c(Nc3ccc(NC(=O)CC(=O)N4CCC[C@@H]4C)cc3)ncnc2c1 [Example 196] | 10 to 100 nM | 100 to 1000 nM | 100 to 1000 nM | 10 to 100 nM | 10 to 100 nM | – | – |
| COCCOc1cc(F)c2c(Nc3ccc(NC(=O)CC(=O)N4CCC[C@H]4C)cc3)ncnc2c1 [Example 197] | 10 to 100 nM | 100 to 1000 nM | 100 to 1000 nM | 10 to 100 nM | 10 to 100 nM | – | – |
| COCCOc1cc(F)c2c(Nc3ccc(NC(=O)CC(=O)N4CC[C@@H](C)C4)cc3)ncnc2c1 [Example 198] | 10 to 100 nM | 100 to 1000 nM | 100 to 1000 nM | 10 to 100 nM | 10 to 100 nM | – | – |
